We go through 26 compounds from US20150148311A1, “NON-SYSTEMIC TGR5 AGONISTS” (Ardelyx, Inc., priority 2011, published 2015).

Some results are limits rather than exact numbers.

For one assay, the target named is T1, human TGR5 (Homo sapiens, UniProt Q8TDU6).
T1 construct: expressed in transfected cells
T1 sequence (Q8TDU6 1-330): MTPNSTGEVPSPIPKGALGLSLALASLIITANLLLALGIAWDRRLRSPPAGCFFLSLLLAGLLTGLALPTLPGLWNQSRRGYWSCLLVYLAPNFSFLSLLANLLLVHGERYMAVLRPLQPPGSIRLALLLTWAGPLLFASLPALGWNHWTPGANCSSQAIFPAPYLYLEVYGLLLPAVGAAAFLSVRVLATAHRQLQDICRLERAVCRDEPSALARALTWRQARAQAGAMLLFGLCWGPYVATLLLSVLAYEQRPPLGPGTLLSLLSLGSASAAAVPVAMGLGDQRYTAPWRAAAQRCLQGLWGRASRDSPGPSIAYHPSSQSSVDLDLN
As to the kind of experiment: Cell-based TGR5 assay, HEK293 cells stably expressing human TGR5, cAMP by HTRF. The note with it: HEK293 cells stably expressing human TGR5, 30 min at 37 C, 0.05 nM to 10 μM, read-out: pEC50 Human TGR5 (converted). In short, it runs like this:
(§1)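 cAMP HTRF read-out, converted to concentration via standard curve, after a 30 min, 37 °C compound exposure in HBSS with 10 mM HEPES pH 7.4 and 0.5 mM IBMX, compounds serially diluted 3-fold from 10 mM DMSO stock then 100-fold. Cells: stable human TGR5 HEK293, or NCI-H716 expressing TGR5 endogenously.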
(In general: Time-resolved FRET reads energy transfer from a long-lived donor to a nearby acceptor.)

Assay [1] has as its target T2, endogenously expressed TGR5 in NCI H716 (Homo sapiens, UniProt Q8TDU6).
T2 construct: human caecum carcinoma cell line NCI-H716 which endogenously expresses human TGR5; endogenous in cells; host or cells: NCI-H716
T2 sequence (Q8TDU6 1-330): T1 sequence (Q8TDU6 1-330)
As to the kind of experiment: Cell-based TGR5 assay, NCI-H716 cells endogenously expressing human TGR5, cAMP by HTRF. The conditions noted are these: 30 min at 37 C, 22 nM to 50 μM, read-out: pEC50 endogenously expressed TGR5 in NCI H716 (converted). The method, boiled down:
as §1

For the next assay, the target named is T3, human IBAT (Homo sapiens, UniProt Q12908).
T3 construct: expressed in transfected cells; host or cells: HEK293
T3 sequence (Q12908 1-348): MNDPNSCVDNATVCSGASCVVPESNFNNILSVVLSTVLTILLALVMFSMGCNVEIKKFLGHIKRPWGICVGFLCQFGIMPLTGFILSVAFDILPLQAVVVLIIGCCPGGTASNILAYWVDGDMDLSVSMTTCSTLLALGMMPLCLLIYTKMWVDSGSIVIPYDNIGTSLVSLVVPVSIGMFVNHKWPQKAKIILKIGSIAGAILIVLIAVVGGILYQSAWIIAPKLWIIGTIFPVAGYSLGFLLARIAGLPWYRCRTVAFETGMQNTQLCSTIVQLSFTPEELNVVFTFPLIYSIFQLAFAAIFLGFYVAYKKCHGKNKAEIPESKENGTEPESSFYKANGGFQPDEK
Kind of assay: IBAT counter screen, [3H]taurocholic acid uptake in IBAT-transfected HEK293 cells. The conditions noted are these: for EC50: read-out: pEC50 human IBAT (converted). It is filed as cell-based. As to the method: Following a 40-min incubation, the solution was removed, and the cells were washed twice with uptake buffer. Cells were lysed by addition of 20 μL 0.1% Tween 80 followed by 100 μL scintillation fluid and counted using a TopCount (Perkin Elmer).
Background: The purpose of a counterscreen is to sort out artefacts and off-target activity.

For the compound `CC(C)(OCc1cc(Cl)ccc1Cl)C(=O)N1CCN(C2CC2)c2ccccc21` [Example 1, 1-(4-cyclopropyl-1,2,3,4-tetrahydroquinoxalin-1-yl)-2-[(2,5-dichlorophenyl)methoxy]-2-methylpropan-1-one], the EC50 is 0.126 to 1 µM on human TGR5, 0.126 to 1 µM in assay [1] and above 25.1 µM on human IBAT.
Turning to `O=C(COc1cc(Cl)ccc1Cl)N1CCN(C2CC2)c2ccccc21` [Example 4, 1-(4-cyclopropyl-3,4-dihydroquinoxalin-1(2H)-yl)-2-(2,5-dichlorophenoxy)ethanone], the EC50 on human TGR5 was 1.26 to 50.1 µM; in assay [1], above 50.1 µM; at human IBAT, above 25.1 µM.
On to `O=C(N1CCN(C2CC2)c2ccccc21)C1(OCc2cc(Cl)ccc2Cl)CCCC1` [Example 8, (4-cyclopropyl-3,4-dihydroquinoxalin-1(2H)-yl)(1-(2,5 dichlorobenzyloxy)cyclopentyl)methanone], for which the EC50 at human TGR5 is below 0.1 µM; in assay [1] it was 0.126 to 1 µM; at human IBAT it was above 25.1 µM.
On to `O=C([C@@H]1CCCN1Cc1cc(Cl)ccc1Cl)N1CCCc2ccccc21` [Example 10, (S)-(1-(2,5-dichlorobenzyl)pyrrolidin-2-yl)(3,4-dihydroquinolin-1(2H)-yl)methanone], for which the EC50 at human IBAT was above 25.1 µM.
On to `O=C([C@@H]1CCCCN1Cc1cc(Cl)ccc1Cl)N1CCCc2ccccc21` [Example 11, (S)-(1-(2,5-dichlorobenzyl)piperidin-2-yl)(3,4-dihydroquinolin-1(2H)-yl)methanone], for which the EC50 on human TGR5 was 1.26 to 50.1 µM; in assay [1], 1.26 to 50.1 µM; at human IBAT it was above 25.1 µM.
Consider `O=C([C@@H]1CCCN1Cc1cc(Cl)ccc1Cl)N1CCN(C2CC2)c2ccccc21` [Example 12, (S)-(4-cyclopropyl-3,4-dihydroquinoxalin-1(2H)-yl)(1-(2,5-dichlorobenzyl)pyrrolidin-2-yl)methanone], for which the EC50 on human IBAT was above 25.1 µM.
Turning to `O=C([C@@H]1CCCCN1C(=O)c1cc(Cl)ccc1Cl)N1CCN(C2CC2)c2ccccc21` [Example 13, (S)-(2-(4-cyclopropyl-1,2,3,4-tetrahydroquinoxaline-1-carbonyl)piperidin-1-yl)(2,5-dichlorophenyl)methanone], the EC50 at human TGR5 was 1.26 to 50.1 µM; in assay [1], 1.26 to 50.1 µM; at human IBAT, above 25.1 µM.
As for `O=C([C@@H]1CCCCN1Cc1cc(Cl)ccc1Cl)N1CCN(C2CC2)c2ccccc21` [Example 14, (S)-(4-cyclopropyl-3,4-dihydroquinoxaline-1(2H)-yl)(1-(2,5-dichlorobenzyl)piperidin-2-yl) methanone], the EC50 at human IBAT was above 25.1 µM.
Still for that read-out and setting: next, `O=C([C@H]1CCCN1Cc1cc(Cl)ccc1Cl)N1CCN(C2CC2)c2ccccc21` [Example 15, (R)-(4-cyclopropyl-3,4-dihydroquinoxalin-1(2H)-yl)(1-(2,5-dichlorobenzyl)pyrrolidin-2-yl)methanone]: above 25.1 µM; `O=C([C@H]1CCCCN1Cc1cc(Cl)ccc1Cl)N1CCN(C2CC2)c2ccccc21` [Example 16, (R)-(4-cyclopropyl-3,4-dihydroquinoxaline-1(2H)-yl)(1-(2,5-dichlorobenzyl)piperidin-2-yl) methanone]: above 25.1 µM.
With `O=C([C@@H]1CCCN1S(=O)(=O)c1cc(Cl)ccc1Cl)N1CCN(C2CC2)c2ccccc21` [Example 18], the EC50 at human TGR5 was 1.26 to 50.1 µM; in assay [1], 1.26 to 50.1 µM; on human IBAT, above 25.1 µM.
As for `CC1(C)C[C@@H](C(=O)N2CCN(C3CC3)c3ccccc32)N(Cc2cc(Cl)ccc2Cl)C1` [Example 19, (S)-(4-cyclopropyl-3,4-dihydroquinoxaline-1 (2H)-yl)(1-(2,5-dichlorobenzyl)-4,4-dimethylpyrrolidin-2-yl)methanone], the EC50 was 1.26 to 50.1 µM at human TGR5, 1.26 to 50.1 µM in assay [1] and above 25.1 µM on human IBAT.
As for `C[C@@]1(C(=O)N2CCN(C3CC3)c3ccccc32)CCCN1Cc1cc(Cl)ccc1Cl` [Example 20, (S)-(4-cyclopropyl-3,4-dihydroquinoxaline-1(2H)-yl)(1-(2,5-dichlorobenzyl)-2-methylpyrrolidin-2-yl)methanone], the EC50 at human IBAT is above 25.1 µM.
For `O=C([C@@H]1CSCCN1Cc1cc(Cl)ccc1Cl)N1CCN(C2CC2)c2ccccc21` [Example 22, (R)-(4-cyclopropyl-3,4-dihydroquinoxaline-1(2H)-yl)(4-(2,5-dichlorobenzyl)thiomorpholin-3-yl)methanone], on human IBAT, the EC50 was above 25.1 µM.
Take `O=C([C@@H]1COCCN1Cc1cc(Cl)ccc1Cl)N1CCN(C2CC2)c2ccccc21` [Example 23, (S)-(4-cyclopropyl-3,4-dihydroquinoxaline-1(2H)-yl)(4-(2,5-dichlorobenzyl)morpholin-3-yl)methanone]: the EC50 at human IBAT is above 25.1 µM.
Consider `O=C([C@@H]1C2CC2CN1Cc1cc(Cl)ccc1Cl)N1CCN(C2CC2)c2ccccc21` (stereo partly drawn) [Example 24, (4-cyclopropyl-3,4-dihydroquinoxaline-1(2H)-yl)((2S)-3-(2,5-dichlorobenzyl)-3-azabicyclo[3.1.0]hexan-2-yl)methanone], for which the EC50 on human TGR5 was 1.26 to 50.1 µM; in assay [1], 1.26 to 50.1 µM; at human IBAT it was above 25.1 µM.
Turning to `O=C([C@@H]1CCC(=O)N1Cc1cc(Cl)ccc1Cl)N1CCN(C2CC2)c2ccccc21` [Example 25, (S)-5-(4-cyclopropyl-1,2,3,4-tetrahydroquinoxaline-1-carbonyl)-1-(2,5-dichlorobenzyl)pyrrolidin-2-one], the EC50 was 1.26 to 50.1 µM at human TGR5, 1.26 to 50.1 µM in assay [1] and above 25.1 µM at human IBAT.
With `CN(Cc1cc(Cl)ccc1Cl)C1(C(=O)N2CCN(C3CC3)c3ccccc32)CC1` [Example 27, (4-cyclopropyl-3,4-dihydroquinoxalin-1(2H)-yl)(1-((2,5-dichlorobenzyl)(methyl)amino)cyclopropyl)methanone], the EC50 is 0.126 to 1 µM on human TGR5, 1.26 to 50.1 µM in assay [1] and above 25.1 µM on human IBAT.
As to `O=C(N1CCN(C2CC2)c2ccccc21)N1CCCC1Cc1ccccc1Cl` (stereo not drawn) [Example 28], the EC50 on human TGR5 was 1.26 to 50.1 µM; in assay [1], 1.26 to 50.1 µM; at human IBAT, above 25.1 µM.
In the case of `O=C(C1=C(Oc2cc(Cl)ccc2Cl)CCCC1)N1CCN(C2CC2)c2ccccc21` [Example 29, (4-cyclopropyl-3,4-dihydroquinoxalin-1(2H)-yl)(2-(2,5-dichlorophenoxy)cyclohex-1-enyl)methanone], the EC50 was below 0.1 µM on human TGR5, 0.126 to 1 µM in assay [1] and above 25.1 µM on human IBAT.
The matching figures for `CC(C)(COc1cc(Cl)ccc1Cl)C(=O)N1CCN(C2CC2)c2ccccc21` [Example 31, 1-(4-cyclopropyl-1,2,3,4-tetrahydroquinoxalin-1-yl)-3-(2,5-dichlorophenoxy)-2,2-dimethylpropan-1-one]: below 0.1 µM, 0.126 to 1 µM and above 25.1 µM.
The matching figures for `COc1ccccc1N(C)C(=O)C1(OCc2cc(Cl)ccc2Cl)CC1` [Example 36, 1-(2,5-dichlorobenzyloxy)-N-(2-methoxyphenyl)-N-methylcyclopropanecarboxamide]: below 0.1 µM, 0.126 to 1 µM and above 25.1 µM.
The matching figures for `COc1cccnc1N(C)C(=O)C1(OCc2cc(Cl)ccc2Cl)CC1` [Example 37, 1-(2,5-dichlorobenzyloxy)-N-(3-methoxypyridin-2-yl)-N-methylcyclopropanecarboxamide]: 0.126 to 1 µM, 1.26 to 50.1 µM and above 25.1 µM.
With `CN(C(=O)C1(OCc2cc(Cl)ccc2Cl)CC1)c1ccccc1OCC1CC1` [Example 40, N-(2-(cyclopropylmethoxy)phenyl)-1-(2,5-dichlorobenzyloxy)-N-methylcyclopropanecarboxamide], the results for the EC50 (at human TGR5; in assay [1]; at human IBAT) were below 0.1 µM, 0.126 to 1 µM and above 25.1 µM, respectively.
For the compound `O=C(N1CCN(C2CC2)c2ccccc21)C1(NCc2cc(Cl)ccc2Cl)CCC1` [Example 56], the EC50 is below 0.1 µM at human TGR5, below 0.1 µM in assay [1] and above 25.1 µM on human IBAT.
Consider `C[C@H](CCC(=O)O)[C@H]1CC[C@H]2[C@@H]3[C@H](O)C[C@@H]4C[C@H](O)CC[C@]4(C)[C@H]3CC[C@]12C` [chenodeoxycholic acid, reference compound], for which the “inhibition of uptake of [3H]taurocholic acid” value at human IBAT (IBAT-transfected HEK293 cells, potency similar to that reported by Craddock) is “inhibited uptake”.
